Where two headings read alike, the source gives them in different places.
Tested on: HIV-1 (NL4-3 strain)
Assay: microbe, parasite or virus in culture
Assay type: cell-based
Details: MT4-GFP cells infected with HIV-1 NL4-3, IP or IC50 from 4-parameter dose response curve
[1] = Human immunodeficiency virus 1, NL43, 0% normal human serum (NHS), read-out: WILD TYPE CELL ASSAY Viking IP (0% NHS)
[2] = Human immunodeficiency virus 1, NL43, 100% normal human serum (NHS), read-out: WILD TYPE CELL ASSAY Viking IP (100% NHS)
[3] = 100% normal human serum (NHS), read-out: WILD TYPE CELL ASSAY Viking IP (100% NHS)
[4] = 0% normal human serum (NHS), read-out: WILD TYPE CELL ASSAY Viking IP (0% NHS)

Compound | IC50 [1] [nM] | IC50 [2] [nM] | IC50 [3] [nM] | IC50 [4] [nM]
C[C@]12CCCO[C@H]1Cn1cc(C(=O)NCc3ccc(F)c(F)c3F)c(=O)c(O)c1C2=O (single isomer, unassigned) [Compound 20] | 3.5 | 839 | – | –
C[C@]12CCCO[C@H]1Cn1cc(C(=O)NCc3c(F)cccc3F)c(=O)c(O)c1C2=O (single isomer, unassigned) [Compound 22] | 2.7 | 251 | – | –
C[C@]12CCCO[C@@H]1Cn1cc(C(=O)NCc3cccc(Cl)c3F)c(=O)c(O)c1C2=O (single isomer, unassigned) [Compound 35] | 0.4 | – | 337 | –
COCCO[C@@]12CCCC[C@]1(C)C(=O)c1c(O)c(=O)c(C(=O)NCc3ccc(F)cc3F)cn1C2 [Compound 114] | 1.9 | 137 | – | –
C[C@]12CC=CCO[C@@H]1Cn1cc(C(=O)NCc3ccc(F)cc3F)c(=O)c(O)c1C2=O [Compound 49] | 3.2 | – | 4070 | –
COCCC[C@]1(C)C(=O)c2c(O)c(=O)c(C(=O)NCc3c(F)cccc3F)cn2C[C@@H]1OC [Compound 83] | – | – | 19 | 0.9
Cc1c(F)ccc(CNC(=O)c2cn3c(c(O)c2=O)C(=O)[C@@]2(C)CCCO[C@H]2C3)c1F (single isomer, unassigned) [Compound 27] | 2 | > 8400 | – | –
C[C@]12CCCCO[C@@H]1Cn1cc(C(=O)NCc3ccc(F)cc3F)c(=O)c(O)c1C2=O (single isomer, unassigned) [Compound 44] | – | – | 316 | 1.9
C[C@]12CCCO[C@H]1Cn1cc(C(=O)NCc3ccccc3F)c(=O)c(O)c1C2=O (single isomer, unassigned) [Compound 21] | 2.4 | 385 | – | –
CC1(C)CCC[C@]2(C)C(=O)c3c(O)c(=O)c(C(=O)NCc4ccc(F)cc4F)cn3C[C@]12O [Compound 108] | 2 | 105 | – | –
C[C@@]12CCCCO[C@@H]1Cn1cc(C(=O)NCc3ccc(F)cc3F)c(=O)c(O)c1C2=O (single isomer, unassigned) [Compound 40] | – | – | 442 | 1.5
COCCC[C@@]1(C)C(=O)c2c(O)c(=O)c(C(=O)NCc3c(F)cc(F)cc3F)cn2C[C@@H]1OC [Compound 92] | 1.3 | 59 | – | –
COCCCO[C@]12CCCC[C@@]1(C)C(=O)c1c(O)c(=O)c(C(=O)NCc3ccc(F)cc3F)cn1C2 [Compound 117] | 2.5 | 1440 | – | –
COCCC[C@@]1(C)C(=O)c2c(O)c(=O)c(C(=O)NCc3c(F)cc(F)cc3F)cn2C[C@@H]1OC [Compound 93] | – | – | 52 | 1.2
C[C@]12CCCO[C@@H]1Cn1cc(C(=O)NCc3ccc(F)cc3F)c(=O)c(O)c1C2=O (single isomer, unassigned) [Compound 33] | – | – | 281 | 0.5
C[C@]12CCCO[C@H]1Cn1cc(C(=O)NCc3cc(F)c(F)c(F)c3)c(=O)c(O)c1C2=O (single isomer, unassigned) [Compound 28] | 4.4 | > 8400 | – | –
C[C@]12CCCCO[C@H]1Cn1cc(C(=O)NCc3cccc(Cl)c3F)c(=O)c(O)c1C2=O [Compound 37] | 1.5 | – | 80 | –
CC1(O)CCn2cc(C(=O)NCc3ccc(F)cc3F)c(=O)c(O)c2C1=O (racemic) [Compound 53] | 64 | > 8400 | – | –
CN1CCC[C@]2(C)C(=O)c3c(O)c(=O)c(C(=O)NCc4ccc(F)cc4F)cn3C[C@H]12 [Compound 124] | 3.2 | 53 | – | –
COC[C@@]1(C)C(=O)c2c(O)c(=O)c(C(=O)NCc3ccc(F)cc3F)cn2C[C@@H]1OC [Compound 57] | – | – | 3500 | 4.7
COCC[C@]1(C)C(=O)c2c(O)c(=O)c(C(=O)NCc3c(F)cccc3F)cn2C[C@@H]1OC [Compound 72] | – | – | 467 | 2.2
C[C@]12CCCO[C@@H]1Cn1cc(C(=O)NCc3cccc(Cl)c3F)c(=O)c(O)c1C2=O (single isomer, unassigned) [Compound 36] | – | – | 1400 | 0.6
COCC[C@]1(C)C(=O)c2c(O)c(=O)c(C(=O)NCc3c(F)cccc3F)cn2C[C@@H]1OC [Compound 73] | – | – | 22 | 1
COCCC[C@@]1(C)C(=O)c2c(O)c(=O)c(C(=O)NCc3cccc(Cl)c3F)cn2C[C@@H]1OC [Compound 81] | – | – | 296 | 1
COC[C@]1(C)C(=O)c2c(O)c(=O)c(C(=O)NCc3ccc(F)cc3F)cn2C[C@@H]1OC [Compound 55] | – | – | > 8400 | 8.1
COC12CCCC1(C)C(=O)c1c(O)c(=O)c(C(=O)NCc3ccc(F)cc3)cn1C2 (centres unmarked) [Compound 106] | 3.3 | 3340 | – | –
COC[C@@]1(C)C(=O)c2c(O)c(=O)c(C(=O)NCc3ccc(F)cc3F)cn2C[C@@H]1OC [Compound 56] | 3.4 | – | 342 | –

Compound | IC50 [1] [nM] | IC50 [2] [nM] | IC50 [3] [nM] | IC50 [4] [nM]
C[C@@]12CCCO[C@@H]1Cn1cc(C(=O)NCc3cccc(Cl)c3F)c(=O)c(O)c1C2=O (single isomer, unassigned) [Compound 15] | 0.5 | 73 | – | –
C[C@]12CCCO[C@H]1Cn1cc(C(=O)NCc3ccc(F)cc3F)c(=O)c(O)c1C2=O [Compound 7] | 2.2 | – | 154 | –
C[C@]12CCCN[C@H]1Cn1cc(C(=O)NCc3ccc(F)cc3F)c(=O)c(O)c1C2=O [Compound 122] | – | – | 35 | 3.3
COCCC[C@]1(C)C(=O)c2c(O)c(=O)c(C(=O)NCc3ccc(F)cc3F)cn2C[C@@H]1OC [Compound 75] | – | – | 13 | 0.5
COC1Cn2cc(C(=O)NCc3ccc(F)cc3F)c(=O)c(O)c2C(=O)C1(C)C (centres unmarked) [Compound 5] | 2.6 | 102 | – | –
COCC[C@@]1(C)C(=O)c2c(O)c(=O)c(C(=O)NCc3c(F)cccc3F)cn2C[C@@H]1OC [Compound 70] | 1.9 | 80 | – | –
C[C@@]12CCCO[C@@H]1Cn1cc(C(=O)NCc3ccc(F)cc3)c(=O)c(O)c1C2=O (single isomer, unassigned) [Compound 18] | 8.7 | 315 | – | –
C[C@]12COCO[C@H]1Cn1cc(C(=O)NCc3ccc(F)cc3F)c(=O)c(O)c1C2=O [Compound 13] | 3.8 | 124 | – | –
COCCO[C@]12CCCC[C@@]1(C)C(=O)c1c(O)c(=O)c(C(=O)NCc3ccc(F)cc3F)cn1C2 [Compound 115] | 1.4 | 225 | – | –
C[C@]12CCCO[C@H]1Cn1cc(C(=O)NCc3ccc4c(c3)OCO4)c(=O)c(O)c1C2=O (single isomer, unassigned) [Compound 29] | 17 | > 8400 | – | –
CO[C@]12CCCC[C@@]1(C)C(=O)c1c(O)c(=O)c(C(=O)NCc3ccc(F)cc3F)cn1C2 [Compound 113] | 1.3 | > 8000 | – | –
CO[C@@]12CCCC[C@]1(C)C(=O)c1c(O)c(=O)c(C(=O)NCc3ccc(F)cc3F)cn1C2 [Compound 112] | 0.65 | 4110 | – | –
COCCC[C@]1(C)C(=O)c2c(O)c(=O)c(C(=O)NCc3c(F)cc(F)cc3F)cn2C[C@@H]1OC [Compound 90] | – | – | 13 | 0.8
C[C@]12CCCC[C@@]1(O)Cn1cc(C(=O)NCc3ccc(F)cc3F)c(=O)c(O)c1C2=O [Compound 95] | 2.2 | 41 | – | –
COCC[C@]1(C)C(=O)c2c(O)c(=O)c(C(=O)NCc3ccccc3F)cn2C[C@@H]1OC [Compound 68] | 1.8 | – | 604 | –
COCC[C@]1(C)C(=O)c2c(O)c(=O)c(C(=O)NCc3ccc(F)cc3F)cn2C[C@@H]1OC [Compound 60] | 2.9 | 2230 | – | –
CO[C@@]12CCCCC[C@]1(C)C(=O)c1c(O)c(=O)c(C(=O)NCc3ccc(F)cc3F)cn1C2 [Compound 118] | 1.4 | 873 | – | –
C[C@@]12COCO[C@H]1Cn1cc(C(=O)NCc3ccc(F)cc3F)c(=O)c(O)c1C2=O [Compound 11] | 3.2 | 484 | – | –
CC1(C)CCn2cc(C(=O)NCc3ccc(F)cc3)c(=O)c(O)c2C1=O [Compound 2] | 27 | – | – | –
C[C@@]12CCCCO[C@@H]1Cn1cc(C(=O)NCc3ccc(F)cc3F)c(=O)c(O)c1C2=O (single isomer, unassigned) [Compound 39] | 0.8 | – | 33 | –
COCCC[C@@]1(C)C(=O)c2c(O)c(=O)c(C(=O)NCc3ccccc3F)cn2C[C@@H]1OC [Compound 89] | – | – | 73 | 2.1
COCC[C@@]1(C)C(=O)c2c(O)c(=O)c(C(=O)NCc3cccc(Cl)c3F)cn2C[C@@H]1OC [Compound 63] | – | – | 249 | 0.9
C[C@]12CCCO[C@H]1Cn1cc(C(=O)NCc3ccc(F)c(Cl)c3)c(=O)c(O)c1C2=O (single isomer, unassigned) [Compound 30] | 2.8 | > 8400 | – | –
C[C@@]12CCCC[C@]1(O)Cn1cc(C(=O)NCc3ccc(F)c(Cl)c3)c(=O)c(O)c1C2=O [Compound 96] | 6.2 | > 8400 | – | –
C[C@]12CCCCO[C@@H]1Cn1cc(C(=O)NCc3cccc(Cl)c3F)c(=O)c(O)c1C2=O (single isomer, unassigned) [Compound 46] | – | – | 459 | 1.3
C[C@]12CCCCO[C@H]1Cn1cc(C(=O)NCc3cccc(Cl)c3F)c(=O)c(O)c1C2=O [Compound 38] | – | – | 1600 | 1.8
C[C@]12CCCO[C@@H]1Cn1cc(C(=O)NCc3ccc(F)cc3F)c(=O)c(O)c1C2=O (single isomer, unassigned) [Compound 34] | – | – | 1500 | 1.7
